Assay results published in patent US20220290103A1, “METHODS AND COMPOSITIONS USING AUXOTROPHIC REGULATABLE CELLS” (AUXOLYTIC LTD, priority 2019, published 2022).

Experiments:
UMPS knockout T cells [1] = assay: Cell counts over time after electroporation (Trypan blue); assay type: cell-based, human; details: supplemented at 250 μg/ml
From the text: To evaluate whether the UMPS knockout leads to differential cell proliferation if cultured without the addition of Uridine or Uridine monophosphate (UMP), the cell counts in culture were followed over time by automatic cell counting with Trypan blue staining. UMPS knockout led to lower cell counts from day 2 after electroporation, compared to cells that were mock electroporated or electroporated using Cas9 targeting a different genomic locus (i.e., CCR5) (FIG. 5B).
In contrast, cell proliferation was not impaired after UMPS knockout if UMP or Uridine were supplemented at high concentrations (250 μg/ml each) (FIG. 5C).

[2] = also broken down in the liver; cited from earlier work
UMPS locus [3] = assay: InDel frequency at end of culture; assay type: cell-based, human; details: UMPS knockout T cells not exposed to 5-FOA, with metabolite, day 8
From the text: To confirm the results on the genomic level, genomic DNA was harvested at the end of the experiment and InDels were quantified (FIG. 5D-FIG. 5E). FIG. 5D compares the frequency of InDels in different culture conditions for cells not exposed to 5-FOA.

UMPS^KO/KO hESCs = assay: Auxotrophy assay with different uridine concentrations; assay type: cell-based, human; details: 2.5-250 μg/ml uridine, day 4
Method: The UMP S locus was disrupted in the hESCs by electroporation of Cas9 RNP and selection of a clone with InDels in exon 1 as evaluated by amplification and Sanger sequencing of the genomic locus. For gene editing, hESCs were treated with 10 μm ROCK inhibitor (Y-27632) for 24 hours before electroporation. Cells at 70-80% confluence were harvested with ACCUTASE® solution (Life Technologies). 500,000 cells were used per reaction with a SpCas9 concentration of 150 μg/mL (Integrated DNA Technologies) and a Cas9:sgRNA molar ratio of 1:3 and electroporation performed in P3 Primary Cell solution (Lonza) in 16-well NUCLEOCUVETTE™ Strips in the 4D NUCLEOFECTOR system (Lonza). Immediately after electroporation, cells were transferred into one well of a […]® protein mixture (Corning, Inc.)-coated 24 well plate containing 500 μl of mTeSR™ media ([…] Technologies) with 10 μM Y-27632. Media was changed 24 hours after editing and Y-27632 was removed 48 hours after.
An auxotrophy assay was performed over four days with different concentrations of uridine. Microscope photos of wells were taken on day 4 after seeding UMPS^KO/KO hESCs at similar densities and culturing in the presence of different uridine concentrations. […] Quantification of viable cells on day 4 after seeding to evaluate the effect of different uridine concentrations is shown in Table 15.

Mock edited T cells = assay: Time course of cell counts with/without UMP or uridine; assay type: cell-based, human; details: with metabolite 250 μg/ml
Method: (§1) Cells were cryopreserved in BAMBANKER™ medium. After thawing cells were cultured at 37° C., 5% CO2 in X-Vivo 15 (Lonza) supplemented with or without 5% human serum (Sigma-Aldrich) and […] human recombinant IL-2 (Peprotech) and 10 ng/ml human recombinant IL-7 (BD Biosciences). UMP or Uridine was added at 250 μg/ml. 5-FOA was added at 100 μg/ml to 1 mg/ml. During culture, medium was refreshed every 2 days.
(§2) Genomic DNA was harvested using QUICKEXTRACT™ DNA Extraction Kit (Epicentre). Cells were counted on an automated cell counter using Trypan blue staining or on a CytoFLEX flow cytometer (Beckman Coulter) with automatic plate reader using COUNTBRIGHT™ beads (ThermoFisher) as a reference for normalizing the values. Alternatively, cells were analyzed after staining with fluorochrome-labelled antibodies (Biolegend) on an ACCURI™ C6 flow cytometer (BD Biosciences), which also measures volumes, or a FACS ARIA™ II SORP cell sorter (BD Biosciences). Data was analyzed using Excel (Microsoft) and FlowJo software (Tree Star).
(§3) T Cells were electroporated and edited as in Example 2 and allowed to recover for a 4-day period in medium with serum, uridine, and UMP. On day 4, cells were shifted to UMP, uridine, or uracil source media.

UMPS knockout T cells [4] = assay: as above; assay type: cell-based, human; details: to the same level as mock edited cells
Method: as §1, §2, §3

CCR5 knockout T cells = assay: as above; assay type: cell-based, human; details: with metabolite 250 μg/ml
Method: as §1, §2, §3

UMPS-7 targeted T cells = assay: 5-FOA selection, cell counts after 4 days; assay type: cell-based, human; details: for Survival in 5-FOA compared to control: both mock treated and UMPS targeted cells; for Average number of cells per volume unit: UMPS-7, grown in 5-FOA 4 days, UMP + Urid; for Average of cells per volume unit: UMPS-7, grown in 5-FOA without serum
Method: (§4) 5-FOA selects for uracil auxotrophic cells in other organisms (e.g. Boeke et al. 1984, Mol. Gen. Genet. 197(2):345-6), which is hereby incorporated by reference in its entirety). To investigate the potential utility of 5-FOA for the selection of uracil auxotrophs among human cells, the UMPS gene was targeted in human T cells by Cas9-gRNA complex electroporation followed by recovery (as shown in Example 2) followed by an assay of resistance to 5-FOA treatment (FIG. 3A). Cells were grown in 5-FOA and a variety of combinations of serum and uracil sources for 4 days before cell counting was performed.

[5] = system: UMPS^KO/KO/GFP^+ K562 cells mixed with UMPS^WT/WT/GFP-negative K562 cells; assay: 5-FOA resistance in mixed culture; assay type: cell-based, human
Method: To determine the resistance of UMPS knockout cells to 5-FOA the purified UMPS^KO/KO/GFP^+ K562 cells were mixed at an equal ratio with UMPS^WT/WT/GFP-negative K562 cells. The cells were cultured in the presence of Uridine and different concentrations of 5-FOA (FIG. 6F).

UMPS^WT/WT cells (GFP−) = assay: 5-FOA resistance in co-culture, FACS; assay type: cell-based, human; details: all tested 5-FOA concentrations
From the text: (§5) To assess resistance to 5-FOA, the UMPS-KO hESCs were genetically engineered to express GFP from an expression cassette integrated into a safe-harbor locus for easier identification in co-culture with UMPS-WT cells.
(§6) These UMPS^KO/KO hESCs were mixed with UMPS^WT/WT cells that were not expressing GFP and followed up by fluorescence-activated cell sorting (FACS) analysis in the presence of different concentrations of 5-FOA. Table 16 provides counts of viable GFP+ and GFP− cells after culture with different 5-FOA concentrations.

UMPS^KO/KO hESCs (GFP+) = assay: 5-FOA resistance in co-culture, FACS; assay type: cell-based, human
From the text: as §5, §6

[6] = system: UMPS-KO T cells mixed with wild-type T cells; assay: 5-FOA selection in mixed population of T cells, FACS; assay type: cell-based, human
From the text: To evaluate the possibility to select for UMPS^KO/KO cells with 5-FOA, the sorted cells were mixed with wild-type cells, which were labeled with different tracking dyes, and cultured in the presence or absence of 5-FOA. In part of the samples, 5-FOA was only added on the first day (Day 0) while in another group it was supplemented daily. Table 30 and FIG. 7C show the percent (%) of the UMPS-KO T cells (labelled with eFluor670) over time when culturing with or without 5-FOA.
In fact, FACS analysis of a culture of a mixed population of UMPS knockout and wild-type T cells with 5-FOA. UMPS-KO T cells were labeled with eFluor670, and wild-type cells were labeled with carboxyfluorescein succinimidyl ester (CFSE). […] On Day 0 in the control group not treated with 5-FOA, 47.7% of the cells were UMPS-KO T cells, and 52.1% were wild-type cells. On Day 3 in the group with 5-FOA supplemented daily, 74.0% of the cells were UMPS-KO T cells, while 25.8% were wild-type cells. On Day 3 in the control group not treated with 5-FOA, 43.1% of the cells were UMPS-KO T cells, and 56.4% were wild-type cells.

Mock T cells = assay: 5-FOA selection, cell counts after 4 days; assay type: cell-based, human; details: for Average number of cells per volume unit: grown in 5-FOA 4 days, UMP + Urid; for Average of cells per volume unit: grown in 5-FOA without serum
Method: as §4

UMPS locus [7] = assay: sgRNA activity screening, InDel quantification by ICE and ICE-D; assay type: cell-based, human; details: activated T cells, 4 days after electroporation with Cas9
From the text: sgRNAs were acquired with chemical modifications from Synthego Corporation. The sgRNAs were complexed with Cas9 protein (IDT) at a molar ration of 2.5:1 (sgRNA:protein) and electroporated into activated T cells using a 4D-NUCLEOFECTOR™ system (Lonza). 4 days later, cells were harvested, and genomic DNA extracted using QUICKEXTRACT™ DNA Extraction Kit (Epicentre) according to the manufacturer's protocol. The sgRNA target site was amplified with specific primers (Table 18) and the amplicon sequenced by Sanger sequencing (MCLab, South San Francisco).
InDel quantification was performed on the sequences using the interference of CRISPR edits (ICE) and ICE-D online tools (ice.synthego.com) (FIG. 5A).

## O=c1ccn([C@@H]2O[C@H](CO)[C@@H](O)[C@H]2O)c(=O)[nH]1 [Uridine, uridine]
UMPS knockout T cells [1]
  Cell proliferation after UMPS knockout: not impaired
[2]
  Absorption in the gastrointestinal tract: poorly absorbed
UMPS locus [3]
  Frameshift InDel frequency: 52.5%
  Overall InDel frequency: 77.0%
UMPS^KO/KO hESCs
  Proliferation (microscope photos): proliferated
Mock edited T cells; Day 4
  Cell density: 3.90E+06 cells per ml
UMPS knockout T cells [4]
  Growth of UMPS edited culture: rescued the growth
CCR5 knockout T cells; Day 4
  Cell density: 3.70E+06 cells per ml
UMPS-7 targeted T cells
  Survival in 5-FOA compared to control: improved the survival

## O=C(O)c1[nH]c(=O)[nH]c(=O)c1F [5-FOA, 5-fluoroorotic acid]
[5]; 5-FOA 10 and 100 μg/ml
  Proliferation of cells with UMP knockouts: proliferated well
[5]; highest 5-FOA concentration
  Cell growth of cells with UMP knockouts: slowed their cell growth down
UMPS^WT/WT cells (GFP−)
  Sensitivity of UMPS-WT cells: sensitive
UMPS^KO/KO hESCs (GFP+); 5-FOA 0.25 μg/ml
  Tolerance of UMPS-KO cells: tolerated
UMPS^KO/KO hESCs (GFP+); 5-FOA concentrations higher than 0.25 μg/ml
  Proliferation of UMPS-KO cells: impaired proliferation
[6]; 5-FOA daily, Day 3
  Percent of UMPS^KO/KO cells in mixed cell population: 74.0%
[6]; 5-FOA only on the first day, Day 0
  wild-type cells among the cells (FACS): 56.0%
[6]; 5-FOA supplemented daily, Day 3
  UMPS-KO T cells among the cells (FACS): 74.0%
UMPS-7 targeted T cells; No Serum
  Average number of cells per volume unit: 72385.14
UMPS-7 targeted T cells; With Serum
  Average number of cells per volume unit: 72181.87
UMPS-7 targeted T cells; UMP
  Average of cells per volume unit: 58299.26
UMPS-7 targeted T cells; Uridine
  Average of cells per volume unit: 77755.72
Mock T cells; No Serum
  Average number of cells per volume unit: 49125.44
Mock T cells; With Serum
  Average number of cells per volume unit: 63071.71
Mock T cells; UMP
  Average of cells per volume unit: 24770.99
Mock T cells; Uridine
  Average of cells per volume unit: 53052.43

## O=c1ccn([C@@H]2O[C@H](COP(=O)(O)O)[C@@H](O)[C@H]2O)c(=O)[nH]1 [UMP, Uridine monophosphate]
UMPS knockout T cells [1]
  Cell proliferation after UMPS knockout: not impaired
UMPS locus [3]
  Frameshift InDel frequency: 46.1%
  Overall InDel frequency: 71.1%
Mock edited T cells; Day 4
  Cell density: 3.80E+06 cells per ml
Mock edited T cells; Day 8
  Cell density: 3.90E+06 cells per ml
UMPS knockout T cells [4]
  Growth of UMPS edited culture: rescued the growth
CCR5 knockout T cells; Day 2
  Cell density: 1.80E+06 cells per ml
CCR5 knockout T cells; Day 6
  Cell density: 3.80E+06 cells per ml
UMPS-7 targeted T cells
  Survival in 5-FOA compared to control: improved the survival

B1: UMPS-7: sgRNA targeting exon 1 of UMPS, SEQ ID NO: 1; target sequence + PAM SEQ ID NO: 5 (nucleic acid)
guide: GCCCCGCAGAUCGAUGUAGAGUUUUAGAGCUAGAAAUAGCAAGUUAAAAUAAGGCUAGUCCGUUAUCAACUUGAAAAAGUGGCACCGAGUCGGUGCUUUU
modifications: listed as RNA, chemistry not given here
UMPS locus [7]
  ICE InDels: 39%
  ICE-D InDels: 93%
